According to article PMC3820767, “Turning Defense into Offense: Defensin Mimetics as Novel Antibiotics Targeting Lipid II” (PLoS Pathogens, 2013):
Converted amounts (≈) assume the structure as drawn. Like-named read-outs stand apart in the source and are kept apart here.

Legend:
[1] = tested on: Staphylococcus aureus (MRSA) MMX757; assay: Broth microdilution susceptibility testing (CLSI); format: cell-based
Description: (§1) The antibacterial activity of defensin mimetics against Staphylococcus aureus ATCC 29213 and Escherichia coli 25922 was carried out in a 96-well turbidimetric assay essentially as described previously with the following modifications: bacteria were exposed for 30 min to compounds in 10 mM phosphate buffer containing 5% DMSO prior to addition of 2× Muller-Hinton medium. Bacterial growth was monitored for 12 hours and data were analyzed as described. Determination of MICs was performed by Micromyx, LLC (Kalamazoo, Michigan) according to CLSI standards.

[2] = tested on: Enterococcus faecalis MMX101-ATCC 29212; assay: Broth microdilution susceptibility testing (CLSI); format: cell-based
Description: as §1

[3] = tested on: Streptococcus pneumoniae MMX1195-ATCC 49619; assay: Broth microdilution susceptibility testing (CLSI); format: cell-based
Description: as §1

[4] = tested on: Staphylococcus aureus MMX100-ATCC 29213; assay: Broth microdilution susceptibility testing (CLSI); format: cell-based
Description: as §1

[5] = tested on: Pseudomonas aeruginosa MMX103-ATCC 27853; assay: Broth microdilution susceptibility testing (CLSI); format: cell-based
Description: as §1

[6] = tested on: Enterococcus faecalis (VRE) MMX848; assay: Broth microdilution susceptibility testing (CLSI); format: cell-based
Description: as §1

[7] = tested on: Escherichia coli MMX102-ATCC 25922; assay: Broth microdilution susceptibility testing (CLSI); format: cell-based
Description: as §1

Jurkat = assay: Cytotoxicity by MTT assay; format: cell-based, human
[8] = Surface Plasmon Resonance binding to immobilized 3-Lipid II; details: SPR; for Binding on Lipid II?: Table S3, initial determination at 10 µM; for Kd: immobilized 3-Lipid II
Description: Surface Plasmon Resonance binding experiments were carried out on a BIAcore T100 system (BIAcore Inc., Piscataway, NY) at 25°C. The assay buffer was 10 mM HEPES, 150 mM NaCl, 0.05% surfactant P20, pH 7.4 (±3 mM EDTA) supplemented with 10% DMSO. […] For initial determination of binding, defensin mimetics were introduced into the flow-cells (30 µl/min) in the running buffer at 10 µM. Resonance signals were corrected for nonspecific binding by subtracting the background of the control flow-cell. After each analysis, the sensor chip surfaces were regenerated with 50 mM NaOH for 30 s at a flow rate 100 µl/min, and equilibrated with the buffer prior to next injection. For binding kinetics studies, binding isotherms were analyzed with manufacturer-supplied software for BIAcore T100.

Caco-2 = assay: Cytotoxicity by MTT assay; format: cell-based, human
[9] = tested on: Staphylococcus aureus ATCC 29213; assay: Antibacterial killing, 96-well turbidimetric (modified vCC) assay; format: cell-based; details: for active against S.aureus (IC100%): Table S3, concentration at which 100% killing occurred, no bacterial regrowth, No = not active; for Bacterial Killing S. aureus: concentration resulting in 100% killing after 30 min exposure, modified vCC assay
Description: as §1

[10] = tested on: Escherichia coli ATCC 25922; assay: as above; format: cell-based; details: for active against E.coli (IC100%): Table S3, concentration at which 100% killing occurred, no bacterial regrowth, No = not active; for Bacterial Killing E. coli: concentration resulting in 100% killing after 30 min exposure, modified vCC assay
Description: as §1

[11] = tested on: Streptococcus pneumonia (PRSP) MMX884; assay: Broth microdilution susceptibility testing (CLSI); format: cell-based, Streptococcus pneumoniae
Description: as §1

Structure (SMILES) | Binding on Lipid II? [8] | IC50 (Caco-2) [µM] | active against S.aureus (IC100%) [9] | active against E.coli (IC100%) [10] | cytotoxic for Caco II (C50% survival) (Caco-2) | further results
Oc1ccc2ccccc2c1C(c1ccc(Cl)cc1)c1c(O)ccc2ccccc12 [Compound 363003] | Yes | 3.5 | 3,9 µM | No | – | MIC Staphylococcus aureus (MRSA) 757-NA [1]: 1 µg/mL (≈ 2.43 µM); MIC Enterococcus faecalis 101-29212 [2]: 1 µg/mL (≈ 2.43 µM); MIC Streptococcus pneumoniae 1195-49619 [3]: 8 µg/mL (≈ 19.5 µM); MIC Staphylococcus aureus 100-29213 [4]: 1 µg/mL (≈ 2.43 µM); MIC Pseudomonas aeruginosa 103-27853 [5]: >32 µg/mL; MIC Enterococcus faecalis (VRE) 848-NA [6]: 1 µg/mL (≈ 2.43 µM); MIC Escherichia coli 102-25922 [7]: >32 µg/mL; IC50 (Jurkat): 12.7 µM; Kd [8]: 39.5 µM; Bacterial Killing S. aureus [9]: 3.9 µM; Bacterial Killing E. coli [10]: >500 µM; MIC Streptococcus pneumonia (PRSP) 884-NA [11]: 16 µg/mL (≈ 38.9 µM)
CC[n+]1c(/C=C/C=C2C=C(/C=C/N(C)c3ccccc3)CC(C)(C)C/2)sc2ccccc21.[I-] [Compound 5107930, 2-[(1E)-3-[(1E)-5,5-dimethyl-3-[(E)-2-[methyl(phenyl)amino]ethenyl]cyclohex-2-en-1-ylidene]prop-1-en-1-yl]-3-ethyl-1,3-benzothiazol-3-ium iodide] | Yes | 27.9 | – | 125 µM | – | MIC Staphylococcus aureus (MRSA) 757-NA [1]: 16 µg/mL; MIC Enterococcus faecalis 101-29212 [2]: 16 µg/mL; MIC Streptococcus pneumoniae 1195-49619 [3]: >64 µg/mL; MIC Staphylococcus aureus 100-29213 [4]: 16 µg/mL; MIC Pseudomonas aeruginosa 103-27853 [5]: >16 µg/mL; MIC Enterococcus faecalis (VRE) 848-NA [6]: 16 µg/mL; MIC Escherichia coli 102-25922 [7]: >16 µg/mL; IC50 (Jurkat): > 223 µM; Kd [8]: 3.64 µM; Bacterial Killing S. aureus [9]: 23.4 µM; Bacterial Killing E. coli [10]: 125 µM; MIC Streptococcus pneumonia (PRSP) 884-NA [11]: >64 µg/mL
Oc1ccccc1Oc1c(F)c(F)c(-c2c(F)c(F)c(Oc3ccccc3O)c(F)c2F)c(F)c1F [Compound 1611-0203, 2-{2,3,5,6-tetrafluoro-4-[2,3,5,6-tetrafluoro-4-(2-hydroxyphenoxy)phenyl]phenoxy}phenol] | – | – | 3,9 µM | – | – | MIC Staphylococcus aureus (MRSA) 757-NA [1]: 2 µg/mL (≈ 3.89 µM); MIC Enterococcus faecalis 101-29212 [2]: 1 µg/mL (≈ 1.94 µM); MIC Streptococcus pneumoniae 1195-49619 [3]: >16 µg/mL; MIC Staphylococcus aureus 100-29213 [4]: 2 µg/mL (≈ 3.89 µM); MIC Pseudomonas aeruginosa 103-27853 [5]: >4 µg/mL; MIC Enterococcus faecalis (VRE) 848-NA [6]: 1 µg/mL (≈ 1.94 µM); MIC Escherichia coli 102-25922 [7]: >4 µg/mL; IC50 (Jurkat; concentration resulting in 50% cell survival, MTT, 4 h, read-out: Cytotoxicity (C50%) Jurkat): 63.4 µM; Kd [8]: 59.6 µM; IC50 (Caco-2; concentration resulting in 50% cell survival, MTT, 24 h, read-out: Cytotoxicity (C50%) Caco-2): 4.2 µM; Bacterial Killing S. aureus [9]: 3.9 µM; Bacterial Killing E. coli [10]: >500 µM; MIC Streptococcus pneumonia (PRSP) 884-NA [11]: >16 µg/mL
CC(=O)NC[C@H]1CN(c2ccc(N3CCOCC3)c(F)c2)C(=O)O1 [Linezolid, reference compound] | – | – | – | – | – | MIC ([1]; Staphylococcus aureus, MRSA, read-out: MIC Staphylococcus aureus (MRSA) 757-NA): 4 µg/mL (≈ 11.9 µM); MIC ([2]; Enterococcus faecalis, ATCC29212, read-out: MIC Enterococcus faecalis 101-29212): 2 µg/mL (≈ 5.93 µM); MIC ([3]; Streptococcus pneumoniae, ATCC49619, read-out: MIC Streptococcus pneumoniae 1195-49619): 2 µg/mL (≈ 5.93 µM); MIC ([4]; Staphylococcus aureus, ATCC29213, read-out: MIC Staphylococcus aureus 100-29213): 4 µg/mL (≈ 11.9 µM); MIC ([5]; Pseudomonas aeruginosa, ATCC27853, read-out: MIC Pseudomonas aeruginosa 103-27853): > 64 µg/mL; MIC ([6]; Enterococcus faecalis, VRE, read-out: MIC Enterococcus faecalis (VRE) 848-NA): 2 µg/mL (≈ 5.93 µM); MIC ([7]; Escherichia coli, ATCC25922, read-out: MIC Escherichia coli 102-25922): > 64 µg/mL; MIC ([11]; Streptococcus pneumoniae, PRSP, read-out: MIC Streptococcus pneumonia (PRSP) 884-NA): 2 µg/mL (≈ 5.93 µM)
CCN1/C(=C/C=C/C=C/C2=CC(=C/c3sc4ccccc4[n+]3CC)/CC(C)(C)C2)Sc2ccccc21 [STK792971, 3-ethyl-2-[(E)-{3-[(1E,3E,5Z)-5-(3-ethyl-1,3-benzothiazol-2(3H)-ylidene)penta-1,3-dien-1-yl]-5,5-dimethylcyclohex-2-en-1-ylidene}methyl]-1,3-benzothiazol-3-ium] | No | – | 62,5 µM | No | No | –
CC[n+]1c(/C=C/C=C2\N(C)c3ccccc3C2(C)C)sc2ccccc21.[O-][Cl+3]([O-])([O-])[O-] [Compound 5660386, 3-ethyl-2-[(1E)-3-[(2Z)-1,3,3-trimethyl-2,3-dihydro-1H-indol-2-ylidene]prop-1-en-1-yl]-1,3-benzothiazol-3-ium perchlorate] | No | – | 7,8 µM | 125 µM | – | IC50 (Caco-2; Table S3, No = not cytotoxic, read-out: cytotoxic for Caco II (C50% survival)): 5.6 µM
CN(C)c1ccc(C=CCN2CCN(Cc3ccccc3)CC2)cc1 [Compound 5429346, 4-[3-(4-benzyl-1-piperazinyl)-1-propen-1-yl]-N,N-dimethylaniline] | Yes | 132 | 500 µM | No | – | –
O=Cc1ccc2c(c1)C1c3ccccc3C2c2ccccc21 [Compound 5100004, pentacyclo[6.6.6.0^{2,7}.0^{9,14}.0^{15,20}]icosa-2,4,6,9,11,13,15,17,19-nonaene-4-carbaldehyde] | No | – | No | No | No | –
COc1ccc(-c2cn(CC(=O)N(c3ccccc3)C(C)C)c3[n+]2CCC3)cc1 [STL050072, 3-(4-methoxyphenyl)-1-{2-oxo-2-[phenyl(propan-2-yl)amino]ethyl}-1,5,6,7-tetrahydropyrrolo[1,2-a]imidazol-4-ium] | No | 340 | No | No | – | –
CC(CCc1ccc(O)cc1)NCCc1ccccc1 (stereo not drawn) [Compound 5460400, 4-{3-[(2-phenylethyl)amino]butyl}phenol] | No | – | No | No | – | cytotoxic for Caco II (C50% survival) (Caco-2; Table S3, No = not cytotoxic): No
Fc1ccc(N2CCN(Cc3ccc(-c4ccccc4)cc3)CC2)cc1 [Compound 5267798, 1-(4-biphenylylmethyl)-4-(4-fluorophenyl)piperazine] | No | – | No | No | No | –
CCN(CC)CCCN1CN(CCCN(CC)CC)CN(CCCN(CC)CC)C1 [Compound 000A-0859, (3-{3,5-bis[3-(diethylamino)propyl]-1,3,5-triazinan-1-yl}propyl)diethylamine] | Yes | 419 | 500 µM | 500 µM | – | –
COc1ccc(C=C[c+]2cc(-c3ccccc3)cc(-c3ccccc3)o2)cc1 [BAS00138032, 2-[2-(4-Methoxy-phenyl)-vinyl]-4,6-diphenyl-pyranylium] | No | – | No | No | No | –
Cc1cc(C2(c3ccc(O)c(C)c3)C(=O)N(Cc3ccccc3)c3ccccc32)ccc1O [Compound 5142587, 1-benzyl-3,3-bis(4-hydroxy-3-methylphenyl)-2,3-dihydro-1H-indol-2-one] | No | 4.4 | 15,625 µM | No | – | –
OCCSc1c(F)c(SCCO)c(SCCO)c(F)c1SCCO [Compound 0438-0367, 2-({2,5-difluoro-3,4,6-tris[(2-hydroxyethyl)sulfanyl]phenyl}sulfanyl)ethan-1-ol] | No | – | No | No | No | –
OCCSc1ccc(Cc2ccc(SCCO)cc2)cc1 [Compound 5210734, 2,2'-[methylenebis(4,1-phenylenethio)]diethanol] | No | – | No | No | No | –
C(#Cc1ccccc1)CN(CC#Cc1ccccc1)CCCCCCN(CC#Cc1ccccc1)CC#Cc1ccccc1.Cl.Cl [Compound 5230300, N,N,N',N'-tetrakis(3-phenyl-2-propyn-1-yl)-1,6-hexanediamine dihydrochloride] | No | – | No | No | No | –
